Test results as given in patent US9809574B2, “Isoindoline or isoquinoline compounds, a process for their preparation and pharmaceutical compositions containing them” (LES LABORATOIRES SERVIER, priority 2013, dated 2017).

Columns and labels:
Bcl-2 protein = Bcl-2 protein (histag-Bcl-2, UniProtKB P10415) (Homo sapiens (Human), UniProt P10415); test: Inhibition of Bcl-2 by the fluorescence polarisation technique; format: binding; settings: fluorescence polarisation test; incubation for 2 hours; read-out: IC50 (nM) Bcl-2 FP
Bcl-2 protein, sequence (P10415 whole entry): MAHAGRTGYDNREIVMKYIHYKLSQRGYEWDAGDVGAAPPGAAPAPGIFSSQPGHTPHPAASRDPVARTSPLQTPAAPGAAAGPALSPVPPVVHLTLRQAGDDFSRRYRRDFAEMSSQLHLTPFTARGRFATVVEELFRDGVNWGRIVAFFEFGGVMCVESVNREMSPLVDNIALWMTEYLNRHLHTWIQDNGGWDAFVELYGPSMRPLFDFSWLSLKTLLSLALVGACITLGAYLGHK
Text: For partial inhibitors, the percentage fluorescence polarisation inhibition for a given concentration of the test compound is indicated.

[1] = test system: RS4; 11 leukaemia cell line; test: In vitro cytotoxicity, Microculture Tetrazolium Assay (MTT); format: cell-based; settings: 11 cells exposed for 48 hours
Procedure: The cytotoxicity studies were carried out on the RS4; 11 leukaemia cell line and on H146 small Cell Lung Carcinoma cell line. The cells are distributed onto microplates and exposed to the test compounds for 48 hours. The cell viability is then quantified by a colorimetric assay, the Microculture Tetrazolium Assay (Cancer Res., 1987, 47, 939-942).

In the case of Cc1c(C(=O)N(C)c2ccccc2)cc(-c2cc3c(cc2C(=O)N2Cc4ccccc4C[C@H]2CCCN2CCOCC2)CN(C(=O)OC2CCCCC2)CC3)n1C [Example 811, Cyclohexyl 6-{1,5-dimethyl-4-[methyl(phenyl)carbamoyl]-1H-pyrrol-2-yl}-7-[(3R)-3-[3-(morpholin-4-yl)propyl]-1,2,3,4-tetrahydroisoquinoline-2-carbonyl]-1,2,3,4-tetrahydroisoquinoline-2-carboxylate], the IC50 (Bcl-2 protein) is reported as 3.8 nM and the IC50 ([1]; Homo sapiens) is reported as 94 nM.
COc1ccccc1OC(=O)N1CCc2cc(-c3cc(C(=O)N(C)c4ccc(O)cc4)c4n3CCCC4)c(C(=O)N3Cc4ccccc4C[C@H]3CN3CCOCC3)cc2C1 [Example 128, 2-Methoxyphenyl 6-{1-[(4-hydroxyphenyl)(methyl)carbamoyl]-5,6,7,8-tetrahydroindolizin-3-yl}-7-[(3S)-3-(morpholin-4-ylmethyl)-1,2,3,4-tetrahydroisoquinoline-2-carbonyl]-1,2,3,4-tetrahydroisoquinoline-2-carboxylate] gave an IC50 (Bcl-2 protein) of 3.5 nM and an IC50 ([1]; Homo sapiens) of 8.2 nM.
For CN(C(=O)c1cc(-c2cc3c(cc2C(=O)N2Cc4ccccc4C[C@H]2CN2CCOCC2)CN(C(=O)NCc2ccccc2)CC3)n2c1CCCC2)c1ccc(O)cc1 [Example 78, N-Benzyl-6-{1-[(4-hydroxyphenyl)(methyl)carbamoyl]-5,6,7,8-tetrahydroindolizin-3-yl}-7-[(3S)-3-(morpholin-4-ylmethyl)-1,2,3,4-tetrahydroisoquinoline-2-carbonyl]-1,2,3,4-tetrahydroisoquinoline-2-carboxamide], the IC50 (Bcl-2 protein) was 4.4 nM and the IC50 ([1]; Homo sapiens) was 142 nM.
In the case of Cc1c(C(=O)N(C)c2ccc(O)cc2)cc(-c2cc3c(cc2C(=O)N2Cc4ccccc4C[C@H]2CN2CCOCC2)CN(C(=O)NC2CCCCC2)CC3)n1C [Example 793, N-Cyclohexyl-6-{4-[(4-hydroxyphenyl)(methyl)carbamoyl]-1,5-dimethyl-1H-pyrrol-2-yl}-7-[(3S)-3-(morpholin-4-ylmethyl)-1,2,3,4-tetrahydroisoquinoline-2-carbonyl]-1,2,3,4-tetrahydroisoquinoline-2-carboxamide], the IC50 (Bcl-2 protein) is reported as 4.4 nM and the IC50 ([1]; Homo sapiens) is reported as 92 nM.
Cc1c(C(=O)N(C)c2ccc(O)cc2)cc(-c2cc3c(cc2C(=O)N2Cc4ccccc4C[C@H]2CN2CCOCC2)CN(C(=O)CC2CCCCC2)CC3)n1C [Example 794, 5-[2-(2-Cyclohexylacetyl)-7-[(3S)-3-(morpholin-4-ylmethyl)-1,2,3,4-tetrahydroisoquinoline-2-carbonyl]-1,2,3,4-tetrahydroisoquinolin-6-yl]-N-(4-hydroxyphenyl)-N,1,2-trimethyl-1H-pyrrole-3-carboxamide] was tested, and the IC50 (Bcl-2 protein) was 4.6 nM and the IC50 ([1]; Homo sapiens) was 70 nM.
Cc1c(C(=O)N(C)c2ccc(O)cc2)cc(-c2cc3c(cc2C(=O)N2Cc4ccccc4C[C@H]2CN2CCOCC2)CN(C(=O)Oc2cccc(C(=O)O)c2)CC3)n1C [Example 709, 3-(6-{4-[(4-Hydroxyphenyl)(methyl)carbamoyl]-1,5-dimethyl-1H-pyrrol-2-yl}-7-[(3S)-3-(morpholin-4-ylmethyl)-1,2,3,4-tetrahydroisoquinoline-2-carbonyl]-1,2,3,4-tetrahydroisoquinoline-2-carbonyloxy)benzoic acid] gave an IC50 (Bcl-2 protein) of 4.8 nM and an IC50 ([1]; Homo sapiens) of over 150 nM.
Cc1c(C(=O)N(C)c2ccc(O)cc2)cc(-c2cc3c(cc2C(=O)N2Cc4ccccc4C[C@H]2CN2CCOCC2)CN(C(=O)Oc2ccc4[nH]ccc4c2)CC3)n1C [Example 577, 1H-Indol-5-yl 6-{4-[(4-hydroxyphenyl)(methyl)carbamoyl]-1,5-dimethyl-1H-pyrrol-2-yl}-7-[(3S)-3-(morpholin-4-ylmethyl)-1,2,3,4-tetrahydroisoquinoline-2-carbonyl]-1,2,3,4-tetrahydroisoquinoline-2-carboxylate] gave an IC50 (Bcl-2 protein) of 5.9 nM and an IC50 ([1]; Homo sapiens) of 4.7 nM.
For C[C@@H]1Cc2ccccc2CN1C(=O)c1cc2c(cc1-c1cc(C(=O)N(C)c3ccc(O)cc3)c3n1CCCC3)CN(CCCc1ccccc1)C2 [Example 30, N-(4-Hydroxyphenyl)-N-methyl-3-{6-[(3R)-3-methyl-1,2,3,4-tetrahydroisoquinoline-2-carbonyl]-2-(3-phenylpropyl)-2,3-dihydro-1H-isoindol-5-yl}-5,6,7,8-tetrahydroindolizine-1-carboxamide], the IC50 (Bcl-2 protein) was 16 nM and the IC50 ([1]; Homo sapiens) was 119 nM.
Work on COc1ccc(CC(=O)N2Cc3cc(C(=O)N4Cc5ccccc5C[C@H]4C)c(-c4cc(C(=O)N(C)c5ccc(O)cc5)c5n4CCCC5)cc3C2)cc1 [Example 51, N-(4-Hydroxyphenyl)-3-{2-[2-(4-methoxyphenyl)acetyl]-6-[(3R)-3-methyl-1,2,3,4-tetrahydroisoquinoline-2-carbonyl]-2,3-dihydro-1H-isoindol-5-yl}-N-methyl-5,6,7,8-tetrahydroindolizine-1-carboxamide] yielded an IC50 (Bcl-2 protein) of 5.5 nM and an IC50 ([1]; Homo sapiens) of 23 nM.
Work on Cc1c(C(=O)N(C)c2ccc(O)cc2)cc(-c2cc3c(cc2C(=O)N2Cc4ccccc4C[C@H]2CN2CCOCC2)CN(C(=O)OC2CCCC2)CC3)n1C [Example 796, Cyclopentyl 6-{4-[(4-hydroxyphenyl)(methyl)carbamoyl]-1,5-dimethyl-1H-pyrrol-2-yl}-7-[(3S)-3-(morpholin-4-ylmethyl)-1,2,3,4-tetrahydroisoquinoline-2-carbonyl]-1,2,3,4-tetrahydroisoquinoline-2-carboxylate] yielded an IC50 (Bcl-2 protein) of 6.2 nM and an IC50 ([1]; Homo sapiens) of 48 nM.
With C[C@@H]1Cc2ccccc2CN1C(=O)c1cc2c(cc1-c1cc(C(=O)N(C)c3ccc(O)cc3)c3n1CCCC3)CCN(S(=O)(=O)c1ccc3ccccc3c1)C2 [Example 41, N-(4-Hydroxyphenyl)-N-methyl-3-{7-[(3R)-3-methyl-1,2,3,4-tetrahydroisoquinoline-2-carbonyl]-2-(naphthalene-2-sulfonyl)-1,2,3,4-tetrahydroisoquinolin-6-yl}-5,6,7,8-tetrahydroindolizine-1-carboxamide] the IC50 (Bcl-2 protein) was 26 nM and the IC50 ([1]; Homo sapiens) was 78 nM.
Work on C[C@@H]1Cc2ccccc2CN1C(=O)c1cc2c(cc1-c1cc(C(=O)N(C)c3ccc(O)cc3)c3n1CCCC3)CN(C(=O)N(C)Cc1ccccc1)C2 [Example 85, N-Benzyl-5-{1-[(4-hydroxyphenyl)(methyl)carbamoyl]-5,6,7,8-tetrahydroindolizin-3-yl}-N-methyl-6-[(3R)-3-methyl-1,2,3,4-tetrahydroisoquinoline-2-carbonyl]-2,3-dihydro-1H-isoindole-2-carboxamide] yielded an IC50 (Bcl-2 protein) of 6.1 nM and an IC50 ([1]; Homo sapiens) of 58 nM.
CN(C(=O)c1cc(-c2cc3c(cc2C(=O)N2Cc4ccccc4C[C@H]2CN2CCOCC2)CN(C(=O)Oc2ccc(C(F)(F)F)cc2)CC3)n2c1CCCC2)c1ccc(O)cc1 [Example 124, 4-(Trifluoromethyl)phenyl 6-{1-[(4-hydroxyphenyl)(methyl)carbamoyl]-5,6,7,8-tetrahydroindolizin-3-yl}-7-[(3S)-3-(morpholin-4-ylmethyl)-1,2,3,4-tetrahydroisoquinoline-2-carbonyl]-1,2,3,4-tetrahydroisoquinoline-2-carboxylate] gave an IC50 (Bcl-2 protein) of 12 nM and an IC50 ([1]; Homo sapiens) of 50 nM.
Cc1ccccc1OC(=O)N1CCc2cc(-c3cc(C(=O)N(C)c4ccc(O)cc4)c4n3CCCC4)c(C(=O)N3Cc4ccccc4C[C@H]3CN3CCOCC3)cc2C1 [Example 100, 2-Methylphenyl 6-{1-[(4-hydroxyphenyl)(methyl)carbamoyl]-5,6,7,8-tetrahydroindolizin-3-yl}-7-[(3S)-3-(morpholin-4-ylmethyl)-1,2,3,4-tetrahydroisoquinoline-2-carbonyl]-1,2,3,4-tetrahydroisoquinoline-2-carboxylate] showed an IC50 (Bcl-2 protein) of 3.9 nM and an IC50 ([1]; Homo sapiens) of 6.5 nM.
Work on C[C@@H]1Cc2ccccc2CN1C(=O)c1cc2c(cc1-c1cc(C(=O)N(C)c3ccc(O)cc3)c3n1CCCC3)CN(C(=O)OC(C)(C)C)C2 [Example 13, tert-Butyl 5-{1-[(4-hydroxyphenyl)(methyl)carbamoyl]-5,6,7,8-tetrahydroindolizin-3-yl}-6-[(3R)-3-methyl-1,2,3,4-tetrahydroisoquinoline-2-carbonyl]-2,3-dihydro-1H-isoindole-2-carboxylate] yielded an IC50 (Bcl-2 protein) of 108 nM and an IC50 ([1]; Homo sapiens) of 729 nM.
Cc1c(C(=O)N(C)c2ccc(O)cc2)cc(-c2cc3c(cc2C(=O)N2Cc4ccccc4C[C@H]2C)CN(C(=O)OC2CCC(NC(=O)OC(C)(C)C)CC2)CC3)n1C (stereo partly drawn) [Example 800, (1r,4r)-4-{[(tert-Butoxy)carbonyl]amino}cyclohexyl 6-{4-[(4-hydroxyphenyl)(methyl)carbamoyl]-1,5-dimethyl-1H-pyrrol-2-yl}-7-[(3R)-3-methyl-1,2,3,4-tetrahydroisoquinoline-2-carbonyl]-1,2,3,4-tetrahydroisoquinoline-2-carboxylate] showed an IC50 (Bcl-2 protein) of 2 nM and an IC50 [1] of 3.2 nM.
CCC(C(=O)N1CCc2cc(-c3cc(C(=O)N(C)c4ccc(O)cc4)c4n3CCCC4)c(C(=O)N3Cc4ccccc4C[C@H]3C)cc2C1)c1ccccc1 (stereo partly drawn) [Example 95, N-(4-Hydroxyphenyl)-N-methyl-3-{7-[(3R)-3-methyl-1,2,3,4-tetrahydroisoquinoline-2-carbonyl]-2-(2-phenylbutanoyl)-1,2,3,4-tetrahydroisoquinolin-6-yl}-5,6,7,8-tetrahydroindolizine-1-carboxamide] showed an IC50 (Bcl-2 protein) of 14 nM and an IC50 ([1]; Homo sapiens) of 115 nM.
CCCCN(C(=O)c1cc(-c2cc3c(cc2C(=O)N2Cc4ccccc4C[C@H]2CN2CCOCC2)CN(C(=O)Oc2ccccc2)CC3)n(C)c1C)c1ccc(O)cc1 [Example 187, Phenyl 6-{4-[butyl(4-hydroxyphenyl)carbamoyl]-1,5-dimethyl-1H-pyrrol-2-yl}-7-[(3S)-3-(morpholin-4-ylmethyl)-1,2,3,4-tetrahydroisoquinoline-2-carbonyl]-1,2,3,4-tetrahydroisoquinoline-2-carboxylate] was tested, and the IC50 (Bcl-2 protein) was 3 nM and the IC50 ([1]; Homo sapiens) was 4.6 nM.
